Experimental findings from patent publication US20070232528A1, “Formulation comprising histone deacetylase inhibitors” (priority 2004, published 2007) are described below.

Several values for one entry are separate records, joined by “and”; a condition that tells them apart may be missing. Identical values can stand only once. Like-named read-outs stand apart in the source and are kept apart here.

One assay relates to Colo320DM cell line. Kind of assay: SRB proliferation assay, interval treatment. The following applies: Homo sapiens, COLO 320DM, 1 mM VPA, read-out: growth inhibition. Type of assay: cell-based. How it is done:
(§1) SRB proliferation assay: The reduction in cellular biomass was measured by SRB-assay. For this assay cells were seeded in 96 well culture dishes at densities between 3000 and 8000 cells per well. […] Cells were fixed with cold Trichloracetat (TCA) producing a final TCA concentration of 10%. After 1 hour of incubation at 4° C. the cells were washed five times with water and air dried. Fixed cells were stained for 30 minutes with 0.4% (wt/vol) Sulforhodamine B (SRB) dissolved in 1% acetic acid and washed four times with 1% acetic acid to remove unbound dye. After air drying bound dye was solubilized with 10 mM unbuffered Tris base (pH 10.5) for 5 minutes. Optical densities (OD) were read on a Molecular Devices Versa Max tunable microplate reader at 520-550 nm. Four test wells for each dose-response were set in parallel with 12 control wells per cell line. Measurement of the cell population density at time 0 (T0; the time at which the drug was added) was also made from 12 reference wells of cells fixed with TCA just prior to drug addition to the test plates. Background OD of complete medium with 5% FBS fixed and stained as described above was also determined in 12 separate wells. From the unprocessed OD data from each microtiter plate the background OD measurements (i.e. OD of complete medium plus stain and OD of cells at T0) were subtracted thus giving the reduction of cellular biomass of the cells.
In general terms: Sulforhodamine B stains cellular protein and so reports cell mass.

For a further assay, the system named is PC-3 cell line. Briefly: SRB proliferation assay, interval treatment. The following applies: Homo sapiens, read-out: growth inhibition. In kind it is cell-based. How it is done:
as §1

The subject of assay [1] is PC3 prostate carcinoma cells. Kind of assay: PC-3 mouse xenograft model. Type of assay: in vivo. As for the experimental part:
24 athymic Nu/Nu^−/− mice were injected with 1×10^6 PC3 prostate carcinoma cells in 100 μl PBS into the right flank (8 animals per group). Tumors were allowed to grow for 4 days. Animals were treated with PBS (control), 2×200 mg/kg/d or 2×400 mg/kg/d, respectively, from day 5 until day 21. Tumor volumes were measured every 3-4 days.
Mouse Xenograft Model: 24 athymic Nu/Nu^−/− (Harlan) mice were injected with 1×10^6 PC3 prostate carcinoma cells in 100 μl PBS into the right flank (8 animals per group). Tumors were allowed to grow for 4 days. […] Tumor volumes were measured every […].

The target of another assay is T1, HDAC 1 (Homo sapiens, UniProt Q13547).
T1 construct: made in house; host or cells: High5 insect cells
Kind of assay: in vitro HDAC assay with recombinant HDAC proteins (Fluor de Lys substrate). In kind it is biochemical. To be noted: recombinant protein purified from High 5 insect cells; read-out: IC50 for HDAC 1 (class I). The source says: (§2) IC50 values may be calculated from dose-response curves. […] Biochem J. Aug. 15, 2000;350 Pt 1:199-205.

The next assay has as its target HDAC 6 (Homo sapiens, UniProt Q9UBN7). Kind of assay: biochemical. The source says: (§3) in vitro HDAC assay for determination of IC50 values: The determination of histone deacetylase activity in recombinant HDAC proteins derived from expression in High5 insect cells is based on the specific deacetylation of an artificial substrate (Fluor de Lys, Biomol). The substrate turn over may be detected and quantified by fluorometry. By addition of a HDAC inhibitor the hydrolysis of the substrate is constrained resulting in a decreased fluorometric signal. IC50 values may be calculated from dose-response curves. The assay is separated in two steps: in the first step the substrate (Fluor de Lys/Biomol KI-104) is hydrolysed by histone deacetylases. In step two HDAC activity is terminated and the fluorophore is activated by the addition of a developer (Developer/Biomol KI-105). […] 25 μl substrate (1:100 dilution in reaction buffer) per well are added to start the reaction. A negative control without histone deacetylase activity and a positive control without HDAC inhibitor are treated likewise. The reaction is stopped after 15-60 min. by adding 50 μl developer (1:20 dilution in reaction buffer). After another 15 min. incubation time at room temperature the fluorescence signal is stable for 60 min and may be detected by a fluorescence reader (excitation filter: 390 nm, emission filter: 460 nm). […]

In the next assay the target is HDAC 8 (Homo sapiens). Kind of assay: biochemical.
From the text: as §3

Another assay has as its system HDAC 2. Briefly: Western blot of peripheral blood cells of patients, phase I/II trial. In kind it is in vivo, human. To be noted: patients with serum levels above the therapeutic plasma concentration. How it is done: (§4) Blood samples were taken before and 6 h, 24 h as well as 48 h after treatment start.
(§5) Whole cell extracts were prepared by lysis of cells in RIPA buffer plus protease inhibitors for denaturing SDS gel electrophoresis on a 12% denaturing polyacrylamide gel. Acetylated histones H3 and H4 and marker protein HDAC 2 were detected by Western blot analysis using an anti-acetyl Histone H3 antibody (Upstate, #06-942), an anti-acetyl Histone H4 antibody (clone T25; patent application EP 02.021984.6), and an anti-HDAC 2 antibody (SCBT, SC-7899). As an equal loading control PVDV membranes were stained with Coomassie.

The next assay deals with Histone H3 and H4. The description is as above. Type of assay: in vivo, human. As for the experimental part: as §4, §5
A further assay addresses T2, HDAC class I (Homo sapiens, UniProt Q13547).
T2 construct: made in house; host or cells: High5 insect cells
Briefly: in vitro HDAC assay, IC50 stated for the enzyme class. To be noted: class I enzyme inhibition. Type of assay: biochemical.
From the text: as §2

The subject of a further assay is Histone H3 in 293T cells. Kind of assay: Western blot of 293T cells treated by release-pattern schemes. In kind it is cell-based. How it is done: Whole cell extracts were prepared by lysis of cells in RIPA buffer plus protease inhibitors for denaturing SDS gel electrophoresis on a 12% denaturing polyacrylamide gel. Acetylated histones H3 were detected by Western blot analysis using an anti-acetylated H3 antibody (Upstate, #06-942).

T2 sequence (Q13547 whole entry): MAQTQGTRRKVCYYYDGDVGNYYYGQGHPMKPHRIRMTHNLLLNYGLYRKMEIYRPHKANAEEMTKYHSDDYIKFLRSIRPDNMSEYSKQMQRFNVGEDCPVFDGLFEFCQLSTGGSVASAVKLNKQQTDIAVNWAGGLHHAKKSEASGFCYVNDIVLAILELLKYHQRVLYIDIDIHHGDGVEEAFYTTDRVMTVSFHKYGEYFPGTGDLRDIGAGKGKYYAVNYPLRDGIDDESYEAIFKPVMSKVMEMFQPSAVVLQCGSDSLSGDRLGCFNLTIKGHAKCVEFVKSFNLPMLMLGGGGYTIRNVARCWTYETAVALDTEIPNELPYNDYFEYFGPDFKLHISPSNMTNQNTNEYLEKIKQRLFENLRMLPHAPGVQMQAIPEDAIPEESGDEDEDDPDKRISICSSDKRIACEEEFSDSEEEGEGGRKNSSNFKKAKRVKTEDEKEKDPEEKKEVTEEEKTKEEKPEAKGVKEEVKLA
T1 sequence (Q13547 whole entry): as above
HDAC 6, sequence (Q9UBN7 whole entry): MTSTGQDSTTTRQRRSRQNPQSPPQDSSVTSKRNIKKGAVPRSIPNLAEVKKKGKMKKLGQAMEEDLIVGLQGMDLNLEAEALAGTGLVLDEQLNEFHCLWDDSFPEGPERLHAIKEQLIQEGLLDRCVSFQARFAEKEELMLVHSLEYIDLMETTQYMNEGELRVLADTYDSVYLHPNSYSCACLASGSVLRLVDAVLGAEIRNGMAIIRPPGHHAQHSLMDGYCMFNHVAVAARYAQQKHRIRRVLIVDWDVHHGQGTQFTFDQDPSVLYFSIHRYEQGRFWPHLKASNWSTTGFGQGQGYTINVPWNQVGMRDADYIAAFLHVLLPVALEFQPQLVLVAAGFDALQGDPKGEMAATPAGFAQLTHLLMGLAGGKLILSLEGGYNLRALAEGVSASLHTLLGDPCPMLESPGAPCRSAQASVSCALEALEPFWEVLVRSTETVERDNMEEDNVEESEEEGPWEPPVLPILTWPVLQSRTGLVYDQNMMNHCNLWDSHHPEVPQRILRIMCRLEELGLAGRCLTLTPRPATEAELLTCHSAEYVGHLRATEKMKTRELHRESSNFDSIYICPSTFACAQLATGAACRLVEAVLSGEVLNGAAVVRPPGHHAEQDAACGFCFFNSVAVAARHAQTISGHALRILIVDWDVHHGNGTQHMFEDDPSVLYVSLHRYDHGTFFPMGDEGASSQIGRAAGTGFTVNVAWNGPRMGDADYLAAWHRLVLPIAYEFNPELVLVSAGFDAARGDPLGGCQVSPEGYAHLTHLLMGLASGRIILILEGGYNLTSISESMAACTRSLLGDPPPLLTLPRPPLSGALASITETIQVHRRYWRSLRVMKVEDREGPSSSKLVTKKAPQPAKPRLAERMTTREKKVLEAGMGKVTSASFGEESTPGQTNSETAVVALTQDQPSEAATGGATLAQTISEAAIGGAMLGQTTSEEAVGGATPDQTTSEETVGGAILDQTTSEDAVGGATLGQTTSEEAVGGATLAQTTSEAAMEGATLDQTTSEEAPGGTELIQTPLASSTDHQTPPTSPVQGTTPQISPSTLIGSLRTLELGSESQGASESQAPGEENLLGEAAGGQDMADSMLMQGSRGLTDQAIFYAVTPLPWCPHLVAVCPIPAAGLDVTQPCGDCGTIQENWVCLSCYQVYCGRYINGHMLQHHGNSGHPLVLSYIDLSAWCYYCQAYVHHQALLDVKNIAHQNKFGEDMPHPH
HDAC 8 (Homo sapiens), sequence (Q9UBN7 whole entry): as above

Take `CCCC(CCC)C(=O)O` [VPA, 2-propyl-pentanoic acid]: the inhibition at 1000 µM amounted to 27% in the assay on Colo320DM cell line (2×8 hours exposure, 40 h treatment free interval ("8 h d")); 57% with Colo320DM cell line (2×20 hours exposure, 26 h treatment free interval ("20 h d")); 80% with Colo320DM cell line (66 h, continuous exposure 66 h); 57% in the assay on PC-3 cell line (PC-3, 66 h, PC3, 1 mM VPA, continuous exposure 66 h); 26% in the assay with PC-3 cell line (PC-3, PC3, 1 mM VPA, 2×8 hours exposure, 40 h treatment free interval ("8 h d")); 43% in the assay on PC-3 cell line (PC-3, PC3, 1 mM VPA, 2×20 hours exposure, 26 h treatment free interval ("20 h d")). For the same compound, the anti-tumoral effect entry in [1] (200 mg/kg/d twice daily, day 5 until day 21) is recorded as “no anti-tumoral effect”. Further, the “PC-3 tumor volume reduction” value in assay [1] (400 mg/kg/d twice daily, day 5 until day 21, compared to PBS control) is reported as over 25%. Moreover, the IC50 was 200 µM and ~200 µM on HDAC 1; 1100 µM against HDAC 6; about 1100 µM at HDAC 8 (Homo sapiens); ~200 µM and 200 µM against HDAC class I. Besides, the “regulation of the marker protein HDAC 2” value with HDAC 2 is “down regulation”. In addition, in the assay with Histone H3 and H4 (peripheral blood cells before and 6 h, 24 h, 48 h after treatment start, intravenous VPA), the “correlation of VPA serum peak levels with induction of histone hyperacetylation” value is recorded as “clear correlation”. In addition, the “histone H3 and H4 hyperacetylation” value in the assay on Histone H3 and H4 (peripheral blood cells, patients with serum levels above the therapeutic plasma concentration) was “could be detected”. For the same compound, in the assay on Histone H3 in 293T cells (VPA above IC50 for class I HDAC, exposure 6 h, 15 h, 24 h), the “degree of histone hyperacetylation” value is on record as “strongly enhanced when the period of exposure is prolonged”. In the assay on Histone H3 in 293T cells (Western blot), the “degree of histone hyperacetylation induction, "fast release" or "slow release" exposure each on their own compared with bi-phasic PEAC exposure” value is given as “less effective”.

The term inhibition denotes the percentage by which the read-out fell short of the control. As a reminder, the IC50 is the concentration needed to halve the response being measured.
